Entries after “also recorded” stand apart in the source; their conditions may differ.
Assays:
[1] = system: myocardial infarction model; test: Myocardial infarction animal model; type: in vivo
Text: FIG. 6 is an experimental result diagram showing berberine for prevention and treatment of ischemic cardiomyopathy.
30 animals in the myocardial infarction model were randomly divided into a control group and a berberine group by intragastric gavage.

[2] = system: pulmonary hypertension induced by dehydrogenated monocrotaline; test: Dehydrogenated monocrotaline-induced pulmonary hypertension in beagles; type: in vivo
Text: FIG. 2 is a mirror view for a contrast experiment of berberine inhibiting pulmonary artery remodeling. Animals with pulmonary hypertension are randomly divided into a normal control group, a berberine group, and a blank group without treatment. Histochemical staining (HE) and vascular endothelial vWF staining, smooth muscle cell staining (SMA).
20 beagles were selected, were subjected to pulmonary hemodynamics measurement, and then were randomly divided into a berberine group ([…]) and a control group (intragastric gavage of a berberine coating, without berberine, 14 days in total). […] Results: the mean pulmonary arterial pressure of only one animal in the berberine group reaches 28 mmHg, and the mean pulmonary arterial pressures of the other 9 animals are all <25 mmHg (19±3.0 mmHg). In contrast, the mean pulmonary arterial pressures of 8 animals in the control group are all >26 mmHg (28.4±2.1 mmHg), one animal for 24.6 mmHg, and the other one for 24.8 mmHg.

in-stent restenosis = test: In-stent restenosis in patients with drug-eluting stent implantation; type: in vivo, human
Description: FIG. 5 is an experimental control diagram of berberine in the prevention and treatment of in-stent restenosis.
100 patients with drug-eluting stent implantation were randomly divided into two groups: a control group (without additional berberine) and a berberine group (additionally administered with berberine at 0.3 g/d since the 3th month after surgery for a total of 6 months), and coronary angiography was performed again at the 12th month after surgery.

[3] = system: idiopathic pulmonary hypertension; test: Clinical experiment in patients with idiopathic pulmonary hypertension; type: in vivo, human; details: berberine 0.3 g/d for 3 months added to original targeted drugs, 3 per group
Text: FIG. 4 is a histogram of contrast experiment data showing that berberine reduces the mean pulmonary arterial pressure. […] Every three data columns in the figure are a group, and are a normal group, a blank group, and a berberine group from left to right in sequence.
Six patients with idiopathic pulmonary hypertension were divided into two groups (3 in each group): a control group (administered with targeted drugs according to the original doses) and a berberine group (based on the original targeted drugs, additionally administered with berberine at 0.3 g/d for a total of 3 months).

[4] = system: pulmonary arterial smooth muscle cells; test: Noradrenaline-stimulated pulmonary arterial smooth muscle cells: Grk2 and LKB1; type: cell-based; details: pulmonary arterial smooth muscle cells of normal animals, berberine added for 30 minutes (CTL group), FIG. 1
Description: FIG. 1 is a schematic diagram of berberine inhibiting noradrenaline. The pulmonary arterial smooth muscle cells are stimulated with noradrenaline (NE) for 2 hours and then randomly divided into a berberine group (Ctl group, berberine for 4 hours) and a control group. In the control group, cells are collected at various time points (30 minutes-4 hours) after the grouping, and the protein phosphorylation activities of liver kinase B1 (LKB1) and G-protein coupled receptor kinase 2 (Grk2) are measured. GAPDH is an internal reference protein.

[5] = cited from earlier work
[6] = system: acute myocardial infarction; test: Cardiac failure in patients with acute myocardial infarction / ischemic cardiomyopathy; type: in vivo, human
Text: 40 patients with acute myocardial infarction were randomly divided into a control group and a berberine group (0.3 g, three times a day, three months later). The mean left ventricular ejection fraction of the control group is 41%, while the mean left ventricular ejection fraction of the berberine group is increased to 53% (p=0.037).

[7] = beagles, intragastric gavage 0.1 g/d for 14 days before dehydrogenated monocrotaline 60 mg/kg, retested after 8 weeks, 9 of 10 animals

**Q.** Which results are given for `COc1ccc2cc3[n+](cc2c1OC)CCc1cc2c(cc1-3)OCO2` [berberine]?
**A.** arrangement of cardiomyocytes ([1]; berberine treatment group): arranged intactly; apoptotic bodies (electron microscopy) ([1]; intragastric gavage, 0.3 g three times a day, three months later, FIG. 6 right A-C): decrease; apoptosis of myocardial cells ([1]; intragastric gavage, 0.3 g three times a day, three months later, fluorescent staining, FIG. 6 left): significantly reduces; proliferation degree of pulmonary arterial smooth muscle / pathological remodeling of pulmonary vasculature ([2]; 8 control animals with mean pulmonary arterial pressure >25 mmHg, then berberine intragastric gavage 0.1 g/d for 42 days, at 14 weeks, FIG. 2): significantly reduced; mean pulmonary arterial pressure, one animal of the berberine group ([2]; beagles, intragastric gavage 0.1 g/d for 14 days before dehydrogenated monocrotaline 60 mg/kg, retested after 8 weeks, 1 of 10 animals): 28 mmHg; mean pulmonary arterial pressures, other 9 animals of the berberine group (bound) [2, 7]: < 25 mmHg; mean pulmonary arterial pressures, other 9 animals of the berberine group (mean ± spread) [2, 7]: 19±3.0 mmHg; stenosis degree in patients with restenosis treated afterwards (in-stent restenosis; 7 control patients with restenosis, oral berberine 0.3 g/d for 6 months, followed up 9 months, result in 6 patients, FIG. 5): significantly reduced; proportion of in-stent restenosis (in-stent restenosis; berberine 0.3 g/d from 3rd month after surgery for 6 months, coronary angiography at 12th month, control 14%, p=0.035): 4%; number of cases showing restenosis (in-stent restenosis; berberine 0.3 g/d from 3rd month after surgery for 6 months, coronary angiography at 12th month, control N=7): 2 cases; in-stent restenosis on coronary angiography, single patient (in-stent restenosis; patient with severe in-stent restenosis, continuous berberine treatment for 6 months, FIG. 5): substantially disappears; degree of stenosis (in-stent restenosis; restenosis cases of berberine group, 12th month after surgery, control 76.3±9%, p=0.029): 58±4%; right ventricular function (right ventricular systolic displacement amplitude, TAPSE) ([3]; FIG. 3): significantly improved; mean pulmonary arterial pressure ([3]; FIG. 4): significantly reduced; Grk2 and LKB1 after noradrenaline stimulation [4]: significant decrease; solubility in benzene, diethyl ether, and chloroform ([5]; benzene, diethyl ether, chloroform): insoluble; solubility in water ([5]; water): soluble; cardiac cavity, single patient ([6]; one patient with acute anterior myocardial infarction, berberine treatment for 3 months, FIG. 7): reduced; ejection fraction, single patient ([6]; one patient, day 22 after myocardial infarction, then berberine for 3 months, ultrasonic cardiography, FIG. 7): significantly increased; also recorded: significant increased; myocardial contractility / systolic function, single patient ([6]; one patient, berberine for 3 months, FIG. 7): improved; also recorded: significantly enhanced; mean left ventricular ejection fraction ([6]; patients with acute myocardial infarction, 0.3 g three times a day, three months later, control 41%, p=0.037): 53%

— patent publication US20190381015A1, “PHARMACEUTICAL USE OF BERBERINE” (priority 2016, published 2019)
